Experiment [1] can be described thus: Anti-diabetes action in KKA^y mouse (glycohemoglobin). To be noted: 2 weeks, variation from value before administration, n=6. The class given is in vivo, female KKA^y mouse. The method, then:
Female KKA^y mice (12-13 week-old, CLEA Japan, Inc.) were bred allowing free ingestion of both feed and water. The mice were acclimation bred with powder CE-2 (CLEA Japan, Inc.) from 2 weeks before administration of the test compound. The body weight, blood glycohemoglobin % (GHb %) value, plasma glucose, triglyceride and total cholesterol concentration were measured, and the mice were divided into 3 groups or 5 groups (6 mice/group) such that those measurement values are uniform at the start of the administration. The compound was administered by mixing (0.01-0.03%) in the feed for 2 weeks. GHb % was measured on the last day. GHb % was measured using Tosoh Corporation automatic glycohemoglobin analyzer (HLC-723GHbV Alc2.2). The numerical values in Table 11 show the variation from the value before administration to the measured value after administration in mean±standard deviation at n=6 (n is the number of mice).

For experiment [2], the system named is differentiated C2C12 muscle cell. Put plainly: Sugar metabolism promoting activity in muscle cell (lactic acid production). The note with it: C2C12 myotube, 1 μM compound, 2 days; lactic acid concentration without compound = 100%. Format: cell-based, mouse. As to the method:
• (1) In the same manner as in Experimental Example 1, C2C12 cell was cultured in a growth medium. When the cells reached subconfluence, the medium was exchanged with a differentiation medium, and the cells were cultured for 3 to 4 days while exchanging the medium every 2 or 3 days until the cells differentiated to form a myotube. • (2) After confirmation of myotube formation under a microscope, the compound (1 μM) was added to a differentiation medium and cultured for 2 days. The cells were washed with Krebs-Ringer HEPES phosphate buffer (10 mM HEPES, pH 7.4, 131 mM NaCl, 4.7 mM KCl, 2.5 mM CaCl2-2H2O, 1.2 mM MgSO4-7H2O, 1.2 mM KH2PO4), the medium was exchanged with Krebs-Ringer HEPES phosphate buffer containing 5 mM glucose, 0.2% fatty acid-free bovine serum albumin, and the cells were cultured at 37° C. for 4 hr. • (3) The lactic acid concentration of the culture supernatant was measured using Detarminer LA kit (Kyowa Medex Co., Ltd.).
The numerical values in Table 4 show the lactic acid concentration of the compound addition group with the lactic acid concentration without addition of the compound as 100%.

The subject of experiment [3] is Mouse-derived myoblast line C2C12 cell. Put plainly: Cell differentiation promoting activity in myoblast (creatine kinase activity). Format: cell-based. The note with it: 48 h, 1 μM compound, 2 days in differentiation medium, CK activity without compound = 100%, read-out: creatinine kinase activating action (%). As to the method:
• (1) Mouse-derived myoblast line C2C12 cell (Dainippon Pharmaceutical Co., Ltd.) was subcultured in a high glucose Eagle's modified Dulbecco's medium (GIBCO) containing 10% calf fetal bovine serum (GIBCO), 100 unit/mL penicillin and 100 μg/mL streptomycin (hereinafter to be referred to as a growth medium), plated at 5000 cells/cm^2 and cultured at 37° C., under 5% CO2. • (2) When the cells reached subconfluence, the medium was exchanged with a high glucose Eagle's modified Dulbecco's medium (GIBCO) containing 2% horse serum (GIBCO) and penicillin, streptomycin and a test compound (hereinafter to be referred to as a differentiation medium), and the cells were cultured for 2 days. To the control group was added DMSO solution instead of the test compound. • (3) The cells were washed with PBS, 0.5% NP-40 solution was added thereto, and the cells were lysed by freeze-thawing. The cell extract was centrifuged, and the creatine kinase activity in the supernatant was measured as an index of muscle differentiation. The creatine kinase activity was measured using CPKII Test Wako (Wako Pure Chemical Industries, Ltd.) according to the manual of the kit. The tests using the compounds of Example 7 to Example 14 were corrected based on the total protein amount measured using CA Protein Assay Kit (Thermo Scientific).
The numerical values in Table 3 show CK activity of the compound addition group with the CK activity without addition of the compound as 100%, and 1 μM of the compound was added for the measurement.

The next experiment deals with NF-kB. Put plainly: NF-kB activation suppressive action in muscle cell (luciferase reporter, TNF-α induced). To be noted: TNF-α 10 ng/mL, activity without TNF-α = 1, n=8. Format: cell-based, mouse. The method, then:
• (1) C2C12 cells introduced with NF-kB reporter plasmid (C2C12/NF-kB-luc, Panomics) was plated at 20000 cells/cm^2, 100 μg/ml hygromycin was added thereto, and the cells were cultured in a growth medium in the same manner as in Example 1. • (2) The cells were cultured in a differentiation medium containing the compound of Example 1, Example 8, Example 9, Example 10 or Example 11 for 1 hr, TNF-α was added thereto such that the concentration is 10 ng/mL, and the cells were cultured for 4 hr. • (3) The luciferase activity in the medium was measured using a Stedy-Glo luciferase assay system (Promega). The NF-kB activity was evaluated by measuring the luciferase activity.
The data in Table 6 to Table 10 show mean±standard deviation at n=8 (n is the number of samples).

For the compound `O=C(/C=C/c1cncnc1-c1ccc(F)cc1)Nc1ccc(CCc2nnco2)cc1` [Example 4, (2E)-3-[4-(4-fluorophenyl)pyrimidin-5-yl]-N-{4-[2-(1,3,4-oxadiazol-2-yl)ethyl]phenyl}prop-2-enamide], the “GHb change (%)” value in experiment [1] (0.03% mixed with feed) was −0.7%. In experiment [2], the “lactic acid production promoting action (%)” value is listed as 222.9%. The activity at 1 µM in experiment [3] was found to be 249%.

Take `COc1ccc(-c2ncncc2/C=C/C(=O)Nc2ccc(CCc3nnco3)cc2)cc1` [Example 5, (2E)-3-[4-(4-methoxyphenyl)pyrimidin-5-yl]-N-{4-[2-(1,3,4-oxadiazol-2-yl)ethyl]phenyl}prop-2-enamide]: the “GHb change (%)” value in experiment [1] (0.03% mixed with feed) is given as −0.3%. Also, the “lactic acid production promoting action (%)” value in experiment [2] worked out at 233.3%. In addition, the activity at 1 µM in experiment [3] worked out at 290%.

As for `O=C(/C=C/c1cnccc1-c1ccc(F)cc1)Nc1ccc(Cn2ccnc2)cc1` [Example 9, (2E)-3-[4-(4-fluorophenyl)pyridin-3-yl]-N-[4-(1H-imidazol-1-ylmethyl)phenyl]prop-2-enamide], the “NF-κB activity (multiple)” value came out at 11.8 multiple with NF-kB (0.001 μM compound); 13.0 multiple in the experiment with NF-kB (0.003 μM compound); 12.1 multiple with NF-kB (0.01 μM compound); 13.1 multiple with NF-kB (0.03 μM compound); 13.0 multiple with NF-kB (0.1 μM compound); 10.2 multiple in the experiment with NF-kB (0.3 μM compound). For the same compound, the “NF-κB activity (multiple)” value with NF-kB (1 μM compound) is given as 8.4 multiple; in the experiment with NF-kB (3 μM compound), 7.6 multiple; in the experiment with NF-kB (10 μM compound), 6.9 multiple. Further, the activity at 1 µM in experiment [3] was found to be 208%.

On to `O=C(/C=C/c1cnccc1-c1ccc(F)cc1)Nc1ccc(CN2CCOCC2)cc1` [Example 6, (2E)-3-[4-(4-fluorophenyl)pyridin-3-yl]-N-[4-(morpholin-4-ylmethyl)phenyl]prop-2-enamide], for which the “GHb change (%)” value in experiment [1] (0.02% mixed with feed) was −1.2%. In experiment [2], the “lactic acid production promoting action (%)” value is recorded as 216.7%. In experiment [3], the activity at 1 µM was found to be 299%.

In the case of `COP(=O)(Cc1ccc(NC(=O)/C=C/c2cnccc2-c2ccc(F)cc2)cc1)OC` [Example 14, dimethyl [4-({(2E)-3-[4-(4-fluorophenyl)pyridin-3-yl]prop-2-enoyl}amino)benzyl]phosphonate], the activity at 1 µM in experiment [3] turned out to be 205%.

On to `O=C(/C=C/c1cnccc1-c1ccc(F)cc1)Nc1ccc(Cn2cnc3ccccc32)cc1` [Example 8, (2E)-N-[4-(1H-benzimidazol-1-ylmethyl)phenyl]-3-[4-(4-fluorophenyl)pyridin-3-yl]prop-2-enamide], for which the “NF-κB activity (multiple)” value worked out at 9.4 multiple with NF-kB (0.001 μM compound); 9.7 multiple with NF-kB (0.003 μM compound); 10.8 multiple in the experiment on NF-kB (0.01 μM compound); 10.6 multiple in the experiment on NF-kB (0.03 μM compound); 9.4 multiple with NF-kB (0.1 μM compound); 7.6 multiple with NF-kB (0.3 μM compound). In addition, the “NF-κB activity (multiple)” value is reported as 7.1 multiple in the experiment on NF-kB (1 μM compound), 6.6 multiple in the experiment with NF-kB (3 μM compound) and 6.1 multiple in the experiment on NF-kB (10 μM compound). Further, the activity at 1 µM in experiment [3] came to 197%.

Consider `O=C(/C=C/c1cnccc1-c1ccc(F)cc1)Nc1ccc(OCc2nnco2)cc1` [Example 10, (2E)-3-[4-(4-fluorophenyl)pyridin-3-yl]-N-[4-(1,3,4-oxadiazol-2-ylmethoxy)phenyl]prop-2-enamide], for which the “NF-κB activity (multiple)” value in the experiment with NF-kB (0.001 μM compound) was 10.0 multiple; in the experiment on NF-kB (0.003 μM compound), 10.2 multiple; in the experiment with NF-kB (0.01 μM compound), 10.5 multiple; with NF-kB (0.03 μM compound), 10.5 multiple; with NF-kB (0.1 μM compound), 9.6 multiple; in the experiment on NF-kB (0.3 μM compound), 7.8 multiple. The “NF-κB activity (multiple)” value in the experiment with NF-kB (1 μM compound) is 7.5 multiple; in the experiment on NF-kB (3 μM compound), 6.9 multiple; in the experiment with NF-kB (10 μM compound), 6.2 multiple. Moreover, the activity at 1 µM in experiment [3] worked out at 164%.

On to `CCOP(=O)(Cc1ccc(NC(=O)/C=C/c2cnccc2-c2ccc(F)cc2)cc1)OCC` [Example 13, diethyl [4-({(2E)-3-[4-(4-fluorophenyl)pyridin-3-yl]prop-2-enoyl}amino)benzyl]phosphonate], for which the activity at 1 µM in experiment [3] was 184%.

With `CCOP(=O)(Cc1ccc(NC(=O)/C=C/c2cnccc2-c2ccccc2)cc1)OCC` [Example 11, diethyl (4-{[(2E)-3-(4-phenylpyridin-3-yl)prop-2-enoyl]amino}benzyl)phosphonate], the “NF-κB activity (multiple)” value in the experiment on NF-kB (0.001 μM compound) stood at 9.7 multiple; with NF-kB (0.003 μM compound) it was 10.8 multiple; in the experiment on NF-kB (0.01 μM compound), 10.5 multiple; in the experiment on NF-kB (0.03 μM compound), 10.6 multiple; with NF-kB (0.1 μM compound) it was 10.6 multiple; with NF-kB (0.3 μM compound), 9.0 multiple. Further, the “NF-κB activity (multiple)” value worked out at 7.3 multiple with NF-kB (1 μM compound), 7.0 multiple in the experiment with NF-kB (3 μM compound) and 5.2 multiple with NF-kB (10 μM compound). The activity at 1 µM in experiment [3] stood at 189%.

As to `Cc1nnc(CCc2ccc(NC(=O)/C=C/c3cnccc3-c3ccc(F)cc3)cc2)o1` [Example 3, (2E)-3-[4-(4-fluorophenyl)pyridin-3-yl]-N-{4-[2-(5-methyl-1,3,4-oxadiazol-2-yl)ethyl]phenyl}prop-2-enamide], the “GHb change (%)” value in experiment [1] (0.03% mixed with feed) was −0.3%. For the same compound, the “lactic acid production promoting action (%)” value in experiment [2] turned out to be 175.4%. In experiment [3], the activity at 1 µM is 249%.

Consider `CS(=O)(=O)Cc1ccc(NC(=O)/C=C/c2cnccc2-c2ccc(F)cc2)cc1` [Example 7, (2E)-3-[4-(4-fluorophenyl)pyridin-3-yl]-N-{4-[(methylsulfonyl)methyl]phenyl}prop-2-enamide], for which the activity at 1 µM in experiment [3] is 197%.

For `COP(=O)(Cc1ccc(NC(=O)/C=C/c2cnccc2-c2ccccc2)cc1)OC` [Example 12, dimethyl (4-{[(2E)-3-(4-phenylpyridin-3-yl)prop-2-enoyl]amino}benzyl)phosphonate], in experiment [3], the activity at 1 µM came to 189%.
